In patent publication US20230287061A1, “NEW ANTIMICROBIAL PEPTIDES” (priority 2020, published 2023):
Ends that are not written are not given here.

Test system: B. cereus

ALLKVLFSWFRKHNSRRKNLPAKN [Seq ID no2]
MIC: 256 µg/mL
